Results as given in patent US20260130845A1, “KETAMINE NASAL SPRAY FORMULATION AND METHODS OF USE” (INESKET LLC, priority 2024, published 2026).

Tests used:
[1] = Open-label absolute bioavailability and pharmacokinetic study of intranasal ketamine in healthy volunteers; format: in vivo, human; conditions: hydro-alcoholic composition, minimum-maximum
Description: This was an open-label study in 25 healthy volunteers. Subjects received single doses of ketamine by intravenous (IV) injection (20 mg), intramuscular (IM) injection (20 mg), or intranasal (IN) administration (20 mg, 40 mg and 80 mg).
Blood samples for the measurement of plasma concentrations of (R)- and (S)-ketamine and (R)- and (S)-norketamine were collected pre-dose and at 0.033, 0.083, 0.167, 0.25, 0.333, 0.5, 0.75, 1, 1.25, 2, 2.5, 3, 4, 6, 8, 12, 16, and 24 hours post-dose for each study period.
All estimates for the parent and metabolite were consistent within each formulation or dose for the racemate, (R)-, and (S)-enantiomers. After IN administration, the estimates were slightly higher for the metabolite than the parent.

[2] = acidic pH near 4.5
Description: A Buffer may be used to control the pH of the nasal spray solution at, or near 4.5. […] Also, the local pH value inside the nasal cavity directly influences the rate and extent of drug absorption. […] Additionally, maintaining pH at or above 4.0 helps to reduce local nasal tract irritation. The buffer is optional.

| Structure (SMILES) | AUC(0-1 hr) ([1]; dose 20 mg) | AUC(0-4 hr) ([1]; dose 20 mg) | Tmax ([1]; dose 20 mg) | AUC(0-1 hr) ([1]; dose 40 mg) | AUC(0-4 hr) ([1]; dose 40 mg) | Tmax ([1]; dose 40 mg) | AUC(0-1 hr) ([1]; dose 10 mg) | AUC(0-4 hr) ([1]; dose 10 mg) | Tmax ([1]; dose 10 mg) | stability of solutions [2] |
| --- | --- | --- | --- | --- | --- | --- | --- | --- | --- | --- |
| CNC1(c2ccccc2Cl)CCCCC1=O (racemic) [(RS)-Ketamine, 2-(2-chlorophenyl)-2-(methylamino)-cyclohexanone] | 28.7-127 hr′ ng/mL | 60.0-209 hr′ ng/mL | 4.98 to 30 min | 71.4-225 hr′ ng/mL | 160-433 hr′ ng/mL | 10 to 30 min | – | – | – | – |
| CN[C@]1(c2ccccc2Cl)CCCCC1=O [(S)-Ketamine] | 30.9-96.7 hr′ ng/mL | 66.9-181 hr′ ng/mL | 10 to 30 min | – | – | – | 12.8-55.8 hr′ ng/mL | 26.4-90.4 hr′ ng/mL | 5 to 20 min | – |
| CNC1(c2ccccc2Cl)CCCCC1=O.Cl (centres unmarked) [Es/ketamine HCl] | – | – | – | – | – | – | – | – | – | better stability |
| CN[C@@]1(c2ccccc2Cl)CCCCC1=O [(R)-Ketamine] | 40.5-129 hr′ ng/mL | 93.0-251 hr′ ng/mL | – | – | – | – | 15.9-70.8 hr′ ng/mL | 33.6-118 hr′ ng/mL | – | – |
